Experiments:
[1] = test system: Pancreatic Cancer Cells (PaCa2); assay: Real-time PCR Angiogenesis Array; type: cell-based
Protocol: Experiments were carried out essentially as described above.

[2] = test system: Pyruvate Dehydrogenase-B (PDH-E1); assay: Western blot, Pyruvate Dehydrogenase beta levels; type: cell-based, human
Protocol: The pyruvate kinase blots were stripped by incubating for 30 minutes with methanol, followed by two 10 minute washes with TBS-T, then 30 minutes of incubation with Stripping buffer at 50 deg C., and followed by two washes with 100 ml or more of TBS-T for 30′ each. The 2 blots were scanned in laser scanner to check for complete stripping. After making sure stripping of the antibody and the ECF reagent has worked, the blots were activated with methanol for 5 seconds, washed with water for 5 minutes, and TBST for 15 minutes. The blots are blocked for 1 hour with 5% blocking reagent in TBS-T at room temperature and then washed 3 times with TBS-T (1X−15′; 2X5′ each) and probed with the antibody for Pyruvate Dehydrogenase in 5% BSA (ABNOVA catalog #H00005162-M03) at 1:500 dilutions) overnight at 4 deg C. with shaking. After the overnight incubation with primary antibody for Pyruvate Dehydrogenase, the membranes were washed 3 times with TBS-T (1X−15′; 2X5′ each) and probed with the secondary antibody (antimouse; 1:10,000 dilution) for 1 h on the orbital tilting shaker at room temperature. […]
The levels of LDH and PDH were determined by probing the blots successively with primary antibodies for LDH and PDH, essentially as described above. […]

SCC cells = assay: Real-time PCR Heat Shock Protein Array; type: cell-based
Excerpt: The control cells were untreated cells.
Heat Shock Arrays were run for SCC cells and the data of regulated genes is summarized below in Table 13.

[3] = test system: HAEC, MCF-7, HepG2 and PC-3 cell lines; assay: OCR and ECAR, SeaHorse XF analyzer (data not shown); type: cell-based, human; details: absence and/or presence of stressors (hyperglycemia, hypoxia, lactic acid)
Protocol: (SeaHorse Biosciences Inc, North Billerica, Mass.).
A similar comparison of OCR and ECAR values (data not shown) were determined in numerous other normal and cancer cells lines, including: HAEC (normal human aortic endothelial cells), MCF-7 (breast cancer), HepG2 (liver cancer) and highly metastatic PC-3 (prostate cancer) cell lines. […] Thus, the overall effect of CoQ10 in the treatment of cancer, including cell death, is an downstream effect of its collective influence on proteomic, genomic, metabolomic outcomes in concert with shifting of the cellular bioenergetics from glycolysis to mitochondrial OXPHOS.

[4] = 100 μM Q10, Down regulated at 6 hours

COC1=C(OC)C(=O)C(C/C=C(\C)CC/C=C(\C)CC/C=C(\C)CC/C=C(\C)CC/C=C(\C)CC/C=C(\C)CC/C=C(\C)CC/C=C(\C)CC/C=C(\C)CCC=C(C)C)=C(C)C1=O [Q10, Coenzyme Q10]
angiogenesis array genes (AKT1, ANGPTL4 ... VEGFA, VEGFB as listed) ([1]; 100 uM Q10): modulated by Q10 treatment | genes from the angiogenesis array whose expression is regulated ([1]; 100 μM Q10, genes: ANGPTL4, CDH5, FGF1, AKT1, ANPEP, CCL2, CXCL1, EDG1, EFNB2, EGF, ILIB, IL8, KDR, NRP1, PECAM1, PROK2, SPHK1, STAB1, VEGFA): A list of genes from the angiogenesis array whose expression is regulated | expression of PDH-E1 ([2]; cancer cells): progressive increase in the expression of the PDH-E1 proteins | expression of PDH-E1 ([2]; normal cells): minimal changes in the normal cells | DNAJB5 Regulation (SCC cells; [4]): Down | DNAJB13 Regulation (SCC cells; [4]): Down | DNAJC4 Regulation (SCC cells; [4]): Down | DNAJC5B Regulation (SCC cells; [4]): Down | DNAJC12 Regulation (SCC cells; [4]): Down | CCT6B Regulation (SCC cells; 100 μM Q10, Down regulated at 24 hours): Down | DNAJA1 Regulation (SCC cells; 100 μM Q10, at 6 hours): Up regulated | HSPA8 Regulation (SCC cells; 100 μM Q10, at 6 hours): Up regulated | HSPH1 Regulation (SCC cells; 100 μM Q10, at 6 hours): Up regulated | OCR and ECAR values [3]: shift in OCR and ECAR values representative of values observed in a normal cells under normal physiological conditions

From patent US10519504B2, “Methods for treatment of oncological disorders using epimetabolic shifters, multidimensional intracellular molecules, or environmental influencers” (Berg LLC, priority 2009, dated 2019)
